Measurements from paper PMC7655065, “Effect of 3-subsitution of quinolinehydroxamic acids on selectivity of histone deacetylase isoforms” (Journal of Enzyme Inhibition and Medicinal Chemistry, 2020).
Like-named read-outs stand apart in the source and are kept apart here.

Legend:
A549 cells [1] = tested on: A549 cells; parameters: method as in PMID 27344487; details: reference compounds, read-out: Antiproliferative activity IC50, A549; cited from earlier work
A549 cells [2] = assay: Sulforhodamine B antiproliferative assay, A549; type: cell-based; details: Homo sapiens
Method: (§1) All human cancer cells were maintained in RPMI 1640 medium supplemented with 10% FBS and penicillin (100 units/ml)/streptomycin (100 µg/ml)/amphotericin B (0.25 µg/ml). All cells were maintained in humidified air containing 5% CO2 at 37 °C and cultured every 2–3 days. […]
(§2) Cells were seeded at the density of 5000 cells/well into 96-plate overnight. Basal cells were fixed with 10% trichloroacetic acid (TCA) to represent the cell population at the time of compound addition (T0). After additional incubation of DMSO (C) or different doses of test compounds (Tx) for 48 h, cells were fixed with 10% TCA and stained with SRB at 0.4% (w/v) in 1% AcOH. Unbound SRB was washed out using 1% AcOH and SRB bound cells were solubilised with 10 mM Trizma base. The absorbance was read at a wavelength of 515 nm. The 50% growth inhibition (GI50) was calculated by 100 − [(Tx – T0)/(C – T0)] × 100.

HCT116 cells [3] = assay: Sulforhodamine B antiproliferative assay, HCT116; type: cell-based; details: Homo sapiens, HCT-116, SRB, 48 h, values > 10 μM estimated from best curve fitting
Method: as §1, §2

HDAC1 = molecular target: T1, HDAC1 (Homo sapiens, UniProt Q13547); assay: HDAC biochemical assay (Fluor-de-Lys), HDAC1; details: for Selectivity ratio of HDAC1 over HDAC6: IC50 HDAC1 / IC50 HDAC6; for IC50: human recombinant HDAC1, values > 10 μM estimated from best curve fitting
T1 construct: EurofinPanlabs (Taipei, Taiwan)
T1 sequence (Q13547 whole entry): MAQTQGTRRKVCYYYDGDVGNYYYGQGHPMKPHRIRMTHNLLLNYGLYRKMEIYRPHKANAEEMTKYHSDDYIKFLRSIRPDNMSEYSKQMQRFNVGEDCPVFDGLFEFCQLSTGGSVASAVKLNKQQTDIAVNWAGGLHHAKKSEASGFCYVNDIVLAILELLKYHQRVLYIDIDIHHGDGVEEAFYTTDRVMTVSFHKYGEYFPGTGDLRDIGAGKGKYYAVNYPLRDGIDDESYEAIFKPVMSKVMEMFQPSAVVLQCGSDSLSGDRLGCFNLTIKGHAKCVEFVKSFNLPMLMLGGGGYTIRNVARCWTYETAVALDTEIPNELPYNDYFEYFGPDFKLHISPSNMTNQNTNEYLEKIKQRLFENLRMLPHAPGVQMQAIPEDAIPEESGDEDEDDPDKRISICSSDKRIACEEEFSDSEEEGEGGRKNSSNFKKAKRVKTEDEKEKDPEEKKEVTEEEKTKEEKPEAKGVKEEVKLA

HDAC2 = molecular target: T2, HDAC2 (Homo sapiens, UniProt Q92769); assay: HDAC biochemical assay (Fluor-de-Lys), HDAC2; details: for Selectivity ratio of HDAC2 over HDAC6: IC50 HDAC2 / IC50 HDAC6; for IC50: human recombinant HDAC2, dash = no inhibition or activity that could not be fitted to an IC50 curve
T2 construct: EurofinPanlabs (Taipei, Taiwan)
T2 sequence (Q92769 whole entry): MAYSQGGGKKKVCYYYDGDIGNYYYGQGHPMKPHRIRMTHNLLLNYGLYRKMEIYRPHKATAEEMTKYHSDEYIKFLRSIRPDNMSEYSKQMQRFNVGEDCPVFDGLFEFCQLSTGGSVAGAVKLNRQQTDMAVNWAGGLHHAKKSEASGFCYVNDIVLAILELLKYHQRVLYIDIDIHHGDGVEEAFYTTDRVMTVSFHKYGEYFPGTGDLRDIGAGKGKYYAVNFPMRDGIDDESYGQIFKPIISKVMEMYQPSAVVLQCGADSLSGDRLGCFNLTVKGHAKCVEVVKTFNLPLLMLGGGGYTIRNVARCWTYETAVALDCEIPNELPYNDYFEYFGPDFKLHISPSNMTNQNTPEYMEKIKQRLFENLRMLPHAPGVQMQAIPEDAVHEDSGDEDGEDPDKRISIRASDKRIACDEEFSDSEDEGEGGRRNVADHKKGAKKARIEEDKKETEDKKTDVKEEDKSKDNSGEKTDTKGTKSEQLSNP

HDAC6 [4] = molecular target: T3, HDAC6 (Homo sapiens, UniProt Q9UBN7); assay: HDAC biochemical assay (Fluor-de-Lys), HDAC6; details: human recombinant HDAC6
T3 construct: EurofinPanlabs (Taipei, Taiwan)
T3 sequence (Q9UBN7 1-1215): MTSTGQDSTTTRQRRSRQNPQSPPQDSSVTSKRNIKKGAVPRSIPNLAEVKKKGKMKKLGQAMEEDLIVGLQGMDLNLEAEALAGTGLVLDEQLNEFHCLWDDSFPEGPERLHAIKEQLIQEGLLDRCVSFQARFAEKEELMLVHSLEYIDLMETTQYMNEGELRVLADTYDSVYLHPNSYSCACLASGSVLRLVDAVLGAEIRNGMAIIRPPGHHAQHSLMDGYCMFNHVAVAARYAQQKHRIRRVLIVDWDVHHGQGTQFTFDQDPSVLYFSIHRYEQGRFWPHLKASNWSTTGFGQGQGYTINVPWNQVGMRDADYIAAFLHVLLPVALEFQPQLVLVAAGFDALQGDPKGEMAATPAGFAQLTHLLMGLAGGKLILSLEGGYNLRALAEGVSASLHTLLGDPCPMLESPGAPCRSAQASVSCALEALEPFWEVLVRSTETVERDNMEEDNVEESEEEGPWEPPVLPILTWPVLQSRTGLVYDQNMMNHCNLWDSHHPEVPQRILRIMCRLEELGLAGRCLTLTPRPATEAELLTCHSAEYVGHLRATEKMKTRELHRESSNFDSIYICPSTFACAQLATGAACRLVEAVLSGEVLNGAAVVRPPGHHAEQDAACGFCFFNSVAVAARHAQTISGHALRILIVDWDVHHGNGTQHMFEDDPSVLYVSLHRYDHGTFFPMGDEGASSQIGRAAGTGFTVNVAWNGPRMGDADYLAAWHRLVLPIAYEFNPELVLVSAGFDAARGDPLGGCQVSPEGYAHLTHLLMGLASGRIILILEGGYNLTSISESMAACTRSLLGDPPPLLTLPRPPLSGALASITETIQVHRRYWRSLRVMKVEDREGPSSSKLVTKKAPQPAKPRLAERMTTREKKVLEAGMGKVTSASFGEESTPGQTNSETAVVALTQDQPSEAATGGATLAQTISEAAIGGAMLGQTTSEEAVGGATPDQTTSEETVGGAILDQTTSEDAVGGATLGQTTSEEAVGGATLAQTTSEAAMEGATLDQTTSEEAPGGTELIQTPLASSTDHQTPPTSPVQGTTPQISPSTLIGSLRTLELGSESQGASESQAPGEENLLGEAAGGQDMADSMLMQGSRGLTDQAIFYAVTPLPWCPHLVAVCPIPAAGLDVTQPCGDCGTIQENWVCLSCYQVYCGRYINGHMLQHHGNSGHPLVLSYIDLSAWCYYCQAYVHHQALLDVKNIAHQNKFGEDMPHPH

HDAC8 = molecular target: T4, HDAC8 (Homo sapiens, UniProt Q9BY41); assay: HDAC biochemical assay (Fluor-de-Lys), HDAC8; details: for Selectivity ratio of HDAC8 over HDAC6: IC50 HDAC8 / IC50 HDAC6; for IC50: human recombinant HDAC8
T4 construct: EurofinPanlabs (Taipei, Taiwan)
T4 sequence (Q9BY41 1-377): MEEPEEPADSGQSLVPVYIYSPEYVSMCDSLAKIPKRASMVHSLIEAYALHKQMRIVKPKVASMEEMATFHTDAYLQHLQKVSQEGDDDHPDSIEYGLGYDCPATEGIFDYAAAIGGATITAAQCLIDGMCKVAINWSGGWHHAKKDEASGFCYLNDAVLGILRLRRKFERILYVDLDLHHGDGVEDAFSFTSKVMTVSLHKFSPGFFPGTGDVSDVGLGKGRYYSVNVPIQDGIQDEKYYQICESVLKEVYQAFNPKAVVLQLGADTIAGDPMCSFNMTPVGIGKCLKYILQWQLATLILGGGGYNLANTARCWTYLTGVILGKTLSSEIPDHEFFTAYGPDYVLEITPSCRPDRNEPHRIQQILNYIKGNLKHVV

HCT116 cells [5] = tested on: HCT116 cells; parameters: method as in PMID 27344487; details: reference compounds, read-out: Antiproliferative activity IC50, HCT116; cited from earlier work
A549 cells [6] = assay: Western blot analysis of apoptosis and DNA damage markers; type: cell-based, human; details: A549 cells treated for 48 h; 0.25, 5 and 10 µM
Method: buffer (20 mMTris-HCl pH 7.5, 150 mM NaCl, 1 mM Na2EDTA, 1 mM EGTA, 1% NP-40, 1% sodium deoxycholate, 0.1% SDS, 2.5 mM β-glycerylphosphate, 1 mM Na4P2O7, 5 mM NaF, 1 mM Na3VO4 and protease inhibitor cocktail from Millipore) on ice for 30 min following by centrifugation at 13000 rpm for 30 min. Protein concentrations were determined and equal amounts of protein were separated by 8–15% sodium dodecyl sulphate-polyacrylamide gel electrophoresis (SDS–PAGE) and transferred to poly(vinylidene difluoride) (PVDF) membranes. Membranes were immunoblotted with specific antibodies overnight at 4 °C and then applied to appropriate horseradish peroxidase-conjugated anti-mouse or anti-rabbit IgG secondary antibodies for 1 h at RT. Signals were detected using an enhanced chemiluminescence (Amersham, Buckinghamshire, UK).

A549 cells [7] = assay: Flow cytometry cell cycle analysis; type: cell-based, human; details: A549 cells, 0.25, 0.5, 10 μM, 48 h, propidium iodide
Method: Briefly, A549 cells were starved with EBM-2 medium overnight and were subsequently replenished with EGM-2 medium with or without 17, 25, and 26 (0.25, 0.5, 10 µM) for 48 h. After being trypsinized and fixed in ice-cold 75% MeOH for 1 h at −20 °C, A549 cells were washed with PBS and resuspended in 0.2 ml DNA extraction buffer (0.2 M Na2HPO4, 0.1 M citric acid; pH 7.8) for 30 min. Then the cells were stained with propidium iodide solution (PI; 100 µg/ml RNase, 80 µg/ml propidium iodide, 0.1% Triton X-100) in PBS. FACScan flow cytometry was utilised to determine cell cycle distribution, and data analysis was performed with CellQuest software (BD Biosciences).

HDAC6 [8] = tested on: HDAC6; parameters: method as in PMID 29304284; details: printed in Figure 2, previously synthesised compound; cited from earlier work
[9] = A549 cells, SRB, 48 h, values > 10 μM estimated from best curve fitting, read-out: Antiproliferative activity IC50, A549

| IC50 (A549 cells [2]; [9]) | IC50 (HCT116 cells [3]) | Selectivity ratio of HDAC1 over HDAC6 (HDAC1) | IC50 (HDAC1) | Selectivity ratio of HDAC2 over HDAC6 (HDAC2) | IC50 (HDAC2) | IC50 (HDAC6 [4]) | Selectivity ratio of HDAC8 over HDAC6 (HDAC8) | IC50 (HDAC8) | Structure (SMILES) | IC50 (A549 cells [1]) | further results |
| --- | --- | --- | --- | --- | --- | --- | --- | --- | --- | --- | --- |
|  |  |  |  |  |  |  |  |  | O=C(CCCCCCC(=O)Nc1ccccc1)NO [SAHA, N^1-hydroxy-N^8-phenyloctanediamide] | 1020 ± 150 nM |  |
| 4970 ± 60 nM | 4700 ± 380 nM | (273) | 5300 nM | (> 515) | > 10000 nM | 19.4 nM | (355) | 6880 nM | O=C(NO)c1ccc(CNc2cccc3cc(-c4ccccc4)cnc23)cc1 [Compound 18, N-Hydroxy-4-[(3-phenyl-quinolin-8-ylamino)-methyl]-benzamide] |  | melting point: 172.7 to 173.2 °C |
|  |  |  |  |  |  |  |  |  | O=C(/C=C/c1cccc(S(=O)(=O)Nc2ccccc2)c1)NO [PXD101, (E)-N-hydroxy-3–(3-(N-phenylsulfamoyl)phenyl)acrylamide] | 780 ± 70 nM | IC50 (HCT116 cells [5]): 130 ± 10 nM |
| 2130 ± 130 nM | 2030 ± 460 nM | (596) | 5130 nM | (336) | 2890 nM | 8.61 nM | (273) | 2350 nM | O=C(NO)c1ccc(CNc2cccc3cc(-c4ccncc4)cnc23)cc1 [Compound 26, N-Hydroxy-4-(((3-(pyridin-4-yl)quinolin-8-yl)amino)methyl)benzamide] |  | IC50 (A549 cells [2]; range over both cell lines (A549 and HCT116) and both compounds, abstract, read-out: IC50 values against A549 and HCT116 cells): 1290 to 2130 nM; Caspase 3, 8, and 9 cleavage (Western blot) (A549 cells [6]): dose dependent increases in caspase 3, 8, and 9 cleavage; Cell cycle distribution, sub G1 population (A549 cells [7]): concentration dependent accumulation of A549 cells in sub G1 phase |
|  |  |  |  |  |  |  |  |  | O=C(NO)c1ccc(CNc2cccc3cccnc23)cc1 [Compound 13, N-hydroxy-4-((quinolin-8-ylamino)methyl)benzamide] |  | IC50 (HDAC6 [8]): 0.29 nM |
